# Values quoted from earlier work as cited in patent publication EP0137640A1, “Chain extended analogues of methotrexate and aminopterin” (DANA-FARBER CANCER INSTITUTE, INC., priority 1983, dated 1985).
# Tested on: carboxypeptidase Gl
# Settings: as described by Chabner et al. (1972) Nature, 239, 395
smiles,measurement,value
"CN(Cc1cnc2nc(N)nc(N)c2n1)c1ccc(C(=O)N[C@@H](CCC(=O)O)C(=O)O)cc1 [MTX, 4-amino-4-deoxy-N^10-methyl-pteroylglutamic acid]",cleavage by carboxypeptidase Gl,rapidly cleaved
